This passage reports logP results from patent US7186831B2, “5-halo-2-alkyl[1,2,4]triazolo[1,5-a]pyrimidin-7-amines” (priority 2001, dated 2007).

The nature of the data set: log P by HPLC. Format: physicochemical.
The mark [1] stands for this setting: HPLC, gradient method, acetonitrile/0.1% aqueous phosphoric acid, EEC directive 79/831 Annex V. A8.
Where [2] appears, read: EEC directive 79/831 Annex V. A8 by HPLC (gradient method, acetonitrile/0.1% aqueous phosphoric acid).

On to `COC(=O)C1CCN(c2c(-c3ccc(F)cc3F)c(Cl)nc3nc(C4CC4)nn23)CC1` [compound 731], for which the logP under setting [1] stood at 3.38. On to `CCN(CCC#N)c1c(-c2ccc(F)cc2F)c(Cl)nc2nc(C3CC3)nn12` [compound 725], for which the logP under setting [1] came to 3.07. Turning to `Fc1ccc(-c2c(Cl)nc3nc(C(F)(F)F)nn3c2N2CCC3(CC2)OCCO3)c(F)c1` [compound 796], under setting [1], the lipophilicity (logP) is reported as 3.8. The same measure, in the same setting: next, `CN(CC1OCCO1)c1c(-c2ccc(F)cc2F)c(Cl)nc2nc(C(F)(F)F)nn12` [compound 540]: 3.62; `CC(C)(C)CNc1c(-c2c(F)cccc2F)c(Cl)nc2nc(C3CC3)nn12` [compound 762]: 3.9; `Cc1nc2nc(Cl)c(-c3c(F)cccc3F)c(N3CCOCC3)n2n1` [compound 176]: 2.2. Still for that read-out and setting: next, `Fc1ccc(-c2c(Cl)nc3nc(C4CC4)nn3c2NCCC(F)(F)F)c(F)c1` [compound 648]: 3.25. Under setting [2], `Cc1nc2nc(Cl)c(-c3ccc(F)cc3F)c(N3CCC(C(F)(F)F)CC3)n2n1` [compound 293] showed a logP of 3.49.

`CCOC(=O)CN(c1c(-c2ccc(F)cc2F)c(Cl)nc2nc(C3CC3)nn12)C1CC1` [compound 727] returned a logP under setting [1] of 3.84. `CCCN(CC1CCCO1)c1c(-c2ccc(F)cc2F)c(Cl)nc2nc(C3CC3)nn12` (centres unmarked) [compound 600] had a logP under setting [1] of 4.22. In the case of `CCNc1c(-c2c(F)cccc2F)c(Cl)nc2nc(C)nn12` [compound 419], the logP under setting [2] was 2.31. Compound `CC(=O)NC1CCN(c2c(-c3ccc(F)cc3F)c(Cl)nc3nc(C(F)(F)F)nn23)C1` (centres unmarked) [compound 793] returned a logP under setting [1] of 2.56. On the same count and under the same terms, next, `Fc1ccc(-c2c(Cl)nc3nc(C(F)(F)F)nn3c2NC2CCCCC2)c(F)c1` [compound 556]: 4.47; `C=C(C)CN(C)c1c(-c2ccc(F)cc2Cl)c(Cl)nc2nc(C3CC3)nn12` [compound 629]: 4.41. Same read-out and setting: next, `Fc1ccc(Nc2c(-c3ccc(F)cc3F)c(Cl)nc3nc(C4CC4)nn23)cc1` [compound 738]: 3.27; `Fc1ccc(-c2c(Cl)nc3nc(C4CC4)nn3c2NC2CCCC2)c(F)c1` [compound 650]: 3.76; `CCc1nc2nc(Cl)c(-c3c(F)cc(F)cc3F)c(NC(C)C)n2n1` [compound 76]: 3.15.

Regarding `CC(C)(C)CNc1c(-c2c(F)cccc2Cl)c(Cl)nc2nc(C3CC3)nn12` [compound 477], the logP under setting [2] came to 4.08. Regarding `OC1CCN(c2c(-c3ccc(F)cc3F)c(Cl)nc3nc(C4CC4)nn23)CC1` [compound 607], the log partition coefficient (logP) under setting [1] was 2.29. Compound `CCN(CCC#N)c1c(-c2ccc(F)cc2F)c(Cl)nc2nc(C(F)(F)F)nn12` [compound 550] yielded a logP under setting [1] of 3.46. On the same count and under the same terms, next, `COCCNc1c(-c2c(F)cc(F)cc2F)c(Cl)nc2nc(C)nn12` [compound 64]: 2.34; `CC(=O)NC1CCN(c2c(-c3ccc(F)cc3F)c(Cl)nc3nc(C4CC4)nn23)C1` (centres unmarked) [compound 728]: 2.17; `Cc1nc2nc(Cl)c(-c3c(F)cccc3F)c(N(C)CCN(C)C)n2n1` [compound 561]: 1.28. The same measure, in the same setting: with `CC(C)CN(C)c1c(-c2c(F)cccc2F)c(Cl)nc2nc(C3CC3)nn12` [compound 676] the figure was 4.08.

In the case of `Cc1nc2nc(Cl)c(-c3c(F)cccc3F)c(N3CCCC(C)C3)n2n1` (centres unmarked) [compound 312], the logP under setting [2] is reported as 3.63. As to `COC(=O)C(COC(C)(C)C)Nc1c(-c2c(F)cc(F)cc2F)c(Cl)nc2nc(C)nn12` (centres unmarked) [compound 120], the logP under setting [1] is 3.47. Still for that read-out and setting: next, `Cc1nc2nc(Cl)c(-c3c(F)cc(F)cc3F)c(NC3CCCC3)n2n1` [compound 62]: 3.23; `Cc1nc2nc(Cl)c(-c3c(F)cc(F)cc3F)c(N3CCCCC3)n2n1` [compound 60]: 3.43.

Under setting [1], `Fc1ccc(-c2c(Cl)nc3nc(C4CC4)nn3c2NCC(F)(F)F)c(F)c1` [compound 714] showed a logP of 3.17.

The compound `CCN(CC)c1c(-c2c(F)cc(F)cc2F)c(Cl)nc2nc(C)nn12` [compound 63] showed a logP under setting [1] of 3.23. Still for that read-out and setting: next, `COCC(C)Nc1c(-c2c(F)cc(F)cc2F)c(Cl)nc2nc(C)nn12` (centres unmarked) [compound 116]: 2.64.

Under setting [1], `CC(C)CN(C)c1c(-c2ccc(F)cc2F)c(Cl)nc2nc(C3CC3)nn12` [compound 668] registered a logP of 4.07.

`CCN(CC)c1c(-c2ccc(F)cc2F)c(Cl)nc2nc(C3CC3)nn12` [compound 597] yielded a logP under setting [1] of 3.73. Same read-out and setting: next, `Cc1nc2nc(Cl)c(-c3c(F)cc(F)cc3F)c(NCC(C)C)n2n1` [compound 145]: 3.14; `Cc1nc2nc(Cl)c(-c3ccc(Cl)cc3Cl)c(NCC(C)C)n2n1` [compound 789]: 3.68; `Cc1nc2nc(Cl)c(-c3ccc(F)cc3F)c(NC(C)C)n2n1` [compound 196]: 2.69. In the case of `Cc1nc2nc(Cl)c(-c3ccc(F)cc3F)c(NC3CCCC3)n2n1` [compound 405], under setting [2], the logP amounted to 3.24. Still for that read-out and setting: with `CCCN(CCOC)c1c(-c2c(F)cccc2F)c(Cl)nc2nc(C)nn12` [compound 348] the figure was 3.12; with `Cc1ccc(Nc2c(-c3c(F)cccc3F)c(Cl)nc3nc(C)nn23)cc1` [compound 444], 3.01; with `COC(CN(C)c1c(-c2c(F)cccc2F)c(Cl)nc2nc(C)nn12)OC` [compound 334], 2.55.

For the compound `CC(C)CC(C)Nc1c(-c2ccc(F)cc2F)c(Cl)nc2nc(C3CC3)nn12` (centres unmarked) [compound 660], under setting [1], the logP was determined as 4.24. Same read-out and setting: with `C=C(C)CNc1c(-c2c(F)cc(F)cc2F)c(Cl)nc2nc(CC)nn12` [compound 21] the figure was 3.15; with `CCc1nc2nc(Cl)c(-c3c(F)cc(F)cc3F)c(NNC(C)C)n2n1` [compound 49], 3.05. Same read-out and setting: with `C=C(C)CN(C)c1c(-c2ccc(F)cc2F)c(Cl)nc2nc(C)nn12` [compound 206] the figure was 3.41; with `Fc1cc(F)c(-c2c(Cl)nc3nc(C(F)(F)F)nn3c2N2CCSCC2)c(F)c1` [compound 110], 4.09; with `CCCN(CCCN)c1c(-c2ccc(F)cc2F)c(Cl)nc2nc(C3CC3)nn12` [compound 726], 1.61. On the same count and under the same terms, next, `Cc1nc2nc(Cl)c(-c3ccc(Cl)cc3Cl)c(N3OC4CCC3C4)n2n1` (centres unmarked) [compound 780]: 3.41. In turn, `Cc1nc2nc(Cl)c(-c3c(F)cccc3F)c(NCC(F)(F)F)n2n1` [compound 424] came in with a logP under setting [2] of 2.56. The compound `Clc1ccccc1-c1c(Cl)nc2nc(C3CC3)nn2c1N1CCCCO1` [compound 484] displayed a logP under setting [2] of 3.71. The same measure, in the same setting: with `CC1CCCN1c1c(-c2ccccc2Cl)c(Cl)nc2nc(C3CC3)nn12` (centres unmarked) [compound 498] the figure was 3.99. `Fc1ccc(-c2c(Cl)nc3nc(C4CC4)nn3c2NCC2CC2)c(Cl)c1` [compound 625]: the logP under setting [1] was 3.63. Under setting [1], `Cc1nc2nc(Cl)c(-c3c(F)cc(F)cc3F)c(N3CC(C)OC(C)C3)n2n1` (centres unmarked) [compound 58] gave a logP of 3.

Under setting [1], `Fc1ccc(-c2c(Cl)nc3nc(C4CC4)nn3c2N2CCCC2C(F)(F)F)c(Cl)c1` (centres unmarked) [compound 639] displayed a logP of 4.23. The same measure, in the same setting: with `CCCN(Cc1cccs1)c1c(-c2ccc(F)cc2F)c(Cl)nc2nc(C3CC3)nn12` [compound 601] the figure was 4.64. Take `CONc1c(-c2c(F)cccc2F)c(Cl)nc2nc(C)nn12` [compound 436]: the logP under setting [2] is 2.07.

Take `FC(F)(F)C1CCCN1c1c(-c2ccccc2Cl)c(Cl)nc2nc(C3CC3)nn12` (centres unmarked) [compound 501]: the logP under setting [2] stood at 4.41.

The compound `Fc1ccc(-c2c(Cl)nc3nc(C4CC4)nn3c2N2CCCCO2)c(Cl)c1` [compound 785] had a logP under setting [1] of 3.87. Turning to `Cc1nc2nc(Cl)c(-c3ccc(Cl)cc3Cl)c(NC(C)C(C)C)n2n1` (centres unmarked) [compound 788], the logP under setting [1] is reported as 4.06. The logP values of the last two compounds are within 0.2 log units of each other. As to `CC(=O)C1CCN(c2c(-c3ccc(F)cc3F)c(Cl)nc3nc(C)nn23)CC1` [compound 289], the logP under setting [2] was determined as 2.5. Under setting [1], `Cc1nc2nc(Cl)c(-c3ccc(F)cc3F)c(NCC(C)C)n2n1` [compound 191] yielded a logP of 3. For `CC1C=CC(C)N1c1c(-c2c(F)cccc2Cl)c(Cl)nc2nc(C3CC3)nn12` (centres unmarked) [compound 584], the logP under setting [1] came out at 4.15.

Regarding `CCN(CC(F)(F)F)c1c(-c2c(F)cc(F)cc2F)c(Cl)nc2nc(C)nn12` [compound 380], the logP under setting [2] worked out at 3.42.

`COC(CN(C)c1c(-c2ccc(F)cc2F)c(Cl)nc2nc(C3CC3)nn12)OC` [compound 666] returned a logP under setting [1] of 3.24.

As for `Fc1ccc(-c2c(Cl)nc3nc(C(F)(F)F)nn3c2N2CCC(C(F)(F)F)CC2)c(F)c1` [compound 805], the logP under setting [1] came out at 4.43. Under setting [1], `Cc1nc2nc(Cl)c(-c3c(F)cc(F)cc3F)c(NNC(C)C)n2n1` [compound 28] yielded a logP of 2.7.

With `CCN(CC1CCCO1)c1c(-c2c(F)cc(F)cc2F)c(Cl)nc2nc(C)nn12` (centres unmarked) [compound 159], the logP under setting [1] came to 3.26. Compound `Cc1nc2nc(Cl)c(-c3c(F)cccc3F)c(N3CC(C)CC(C)C3)n2n1` (centres unmarked) [compound 310] had a logP under setting [2] of 4.08.

`CC(Nc1c(-c2ccc(Cl)cc2Cl)c(Cl)nc2nc(C3CC3)nn12)C(F)(F)F` (single isomer, unassigned) [compound 711] yielded a logP under setting [1] of 4.19. Still for that read-out and setting: next, `C=C(C)CN(CC)c1c(-c2c(F)cccc2Cl)c(Cl)nc2nc(C)nn12` [compound 114]: 3.91.

As for `CCONc1c(-c2ccccc2F)c(Cl)nc2nc(C)nn12` [compound 362], under setting [2], the logP stood at 2.28.

With `Fc1cc(F)c(-c2c(Cl)nc3nc(C(F)(F)F)nn3c2N2CCCCC2C(F)(F)F)c(F)c1` (centres unmarked) [compound 109], the logP under setting [1] was 4.76.

Under setting [1], `Cc1nc2nc(Cl)c(-c3c(F)cc(F)cc3F)c(NC(C)(C)C(F)(F)F)n2n1` [compound 88] showed a logP of 3.7. Under setting [2], `CCCN(CCOC)c1c(-c2ccccc2Cl)c(Cl)nc2nc(C)nn12` [compound 416] gave a log partition coefficient (logP) of 3.36. Compound `CCC(C)Nc1c(-c2ccc(F)cc2Cl)c(Cl)nc2nc(C3CC3)nn12` (centres unmarked) [compound 623] yielded a lipophilicity (logP) under setting [1] of 3.9.
